Laboratory results as given in ChEMBL document CHEMBL1135307, “Novel diamide-based inhibitors of IMPDH” (Bioorg Med Chem Lett, 2002).

Biological target: Inosine-5'-monophosphate dehydrogenase 2 (Homo sapiens, UniProt P12268)
Test: Inhibition of human Inosine-5'-monophosphate dehydrogenase 2

| Compound | IC50 [nM] |
| --- | --- |
| COc1cc(NC(=O)C(=O)NCc2ccccc2)ccc1-c1cnco1 | > 10000 |
| CC(C)(C)NC(=O)C(=O)Nc1ccc(-c2cnco2)c(Cl)c1 | 55 |
| CC(C)(C)NC(=O)C(=O)Nc1ccc(-c2cnco2)cc1 | > 10000 |
| COc1cc(NC(=O)C(=O)N(C)c2ccccc2)ccc1-c1cnco1 | > 10000 |
| COc1cc(NC(=O)C(=O)NC(C)(C)C(=O)O)ccc1-c1cnco1 | > 10000 |
| COc1cc(NC(=O)C(=O)NC(C)(C)C)ccc1-c1cnco1 | 10 |
| COc1cc(NC(=O)C(=O)NC(C)C)ccc1-c1cnco1 | > 10000 |
| CC(C)(C)NC(=O)C(=O)Nc1ccc(-c2cnco2)c(Br)c1 | 50 |
| Cc1ncoc1-c1ccc(NC(=O)C(=O)NC(C)(C)C)cc1 | > 10000 |

Results, then the compound that gave them:

| IC50 [nM] | Compound |
| --- | --- |
| > 10000 | CCCNC(=O)C(=O)Nc1ccc(-c2cnco2)c(OC)c1 |
| 30 | COc1cc(NC(=O)C(=O)Nc2cccc(CNC(=O)O[C@@H]3CCOC3)c2)ccc1-c1cnco1 |
| > 10000 | COc1cc(NC(=O)C(=O)N(C)C(C)(C)C)ccc1-c1cnco1 |
| 18 | COc1cc(NC(=O)C(=O)NC2(CO)CCCC2)ccc1-c1cnco1 |
| 400 | COc1cc(NC(=O)CC(=O)Nc2ccccc2)ccc1-c1cnco1 |
| 47 | COc1cc(NC(=O)C(=O)NC(C)(C)CN(C)C)ccc1-c1cnco1 |
| > 10000 | COc1cc(NC(=O)C(=O)NNc2ccccc2)ccc1-c1cnco1 |
| > 10000 | COc1cc(NC(=O)C(=O)NC2CCCCC2)ccc1-c1cnco1 |
| 74 | COC(=O)C(C)(C)NC(=O)C(=O)Nc1ccc(-c2cnco2)c(OC)c1 |
| 440 | COc1cc(NC(=O)CC(=O)Nc2cccc(C)c2)ccc1-c1cnco1 |
| 52 | COc1cc(NC(=O)C(=O)Nc2ccccc2)ccc1-c1cnco1 |
| 19 | COc1cc(NC(=O)C(=O)NC(C)(C)CO)ccc1-c1cnco1 |
